# Laboratory results reported in patent publication US11358969B2, “Indole AHR inhibitors and uses thereof” (Ikena Oncology, Inc., priority 2017, dated 2022).
# Like-named read-outs stand apart in the source and are kept apart here.
# What was measured:
# AHR = biological target: T1, AHR (UniProt P35869); experiment: DRE-Luciferase Reporter Assay (Alternate Method) (Example 1B); format: cell-based, murine or human; conditions: cell line and AHR activating ligand not specified
# T1 construct: IC50
# T1 sequence (P35869 1-848): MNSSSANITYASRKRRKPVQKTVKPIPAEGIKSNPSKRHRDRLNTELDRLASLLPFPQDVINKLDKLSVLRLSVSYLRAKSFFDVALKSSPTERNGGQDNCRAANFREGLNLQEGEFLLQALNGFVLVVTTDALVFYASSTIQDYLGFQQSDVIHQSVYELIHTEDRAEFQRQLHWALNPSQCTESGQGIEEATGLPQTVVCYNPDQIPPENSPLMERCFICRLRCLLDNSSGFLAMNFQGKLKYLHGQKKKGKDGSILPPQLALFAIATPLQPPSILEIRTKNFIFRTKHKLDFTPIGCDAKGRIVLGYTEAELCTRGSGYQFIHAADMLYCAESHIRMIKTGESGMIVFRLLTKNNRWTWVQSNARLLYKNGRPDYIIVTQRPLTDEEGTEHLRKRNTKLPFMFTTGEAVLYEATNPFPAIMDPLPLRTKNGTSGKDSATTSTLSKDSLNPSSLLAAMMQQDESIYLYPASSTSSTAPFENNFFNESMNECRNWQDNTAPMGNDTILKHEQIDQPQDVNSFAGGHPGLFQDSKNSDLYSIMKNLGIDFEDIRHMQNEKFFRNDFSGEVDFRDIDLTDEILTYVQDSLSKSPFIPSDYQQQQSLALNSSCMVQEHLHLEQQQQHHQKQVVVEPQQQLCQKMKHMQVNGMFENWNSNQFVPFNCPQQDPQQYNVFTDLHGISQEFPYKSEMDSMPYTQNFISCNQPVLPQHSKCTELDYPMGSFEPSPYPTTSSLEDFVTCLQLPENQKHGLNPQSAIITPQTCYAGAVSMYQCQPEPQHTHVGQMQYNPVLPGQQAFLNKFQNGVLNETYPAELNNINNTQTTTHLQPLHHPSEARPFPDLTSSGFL
# Cyp1a1 = experiment: In Vivo Mouse liver and spleen Cyp1a1 Modulation Assay (Example 1E); parameters: species or system C57BL/6 mice; conditions: po, dose 30 mg/kg, with AHR agonist VAG539 30 mg/kg po, qPCR
# Method: C57BL/6 mice, female, 6-8 weeks old, weighing approximately 18-20 g were purchased from Shanghai Lingchang Biological Technology Co., Ltd or other certified vendors and used in the studies. Animal husbandry, feeding and health conditions are according to animal welfare guidelines. VAG539 (30 mg/kg, po) was used as AHRagonist, and test compounds were formulated in suitable vehicles, typically 0.5% methylcellulose).
# C57BL/6 mice (n=3 per group) were treated with AHR agonist alone or with AHR agonist and test compounds. Animals were sacrificed at 4 or 10 hours after treatment upon which their livers and spleens were collected and subsequently analyzed by qPCR. Normalized fold induction of cyp1a1 was determined by comparing mCYP1A1 and mGAPDH counts (ct) according to: normalized fold=2^−ΔΔCt. The percent inhibition was calculated according to: […]
# [1] = In Vitro Mouse liver S9 Metabolic Stability Assay (Example 1D); format: in vitro ADME; conditions: CD-1 mouse liver S9, 1 μM compound, 1 mg/mL S9 protein, 37° C., NADPH regenerating system, UDPGA, PAPS
# Method: CD-1 mouse liver S9 were purchased from Corning or XenoTech LLC or BioreclamationIVT, LLC or WuXi prepared. The cells were stored at −80° C. in a freezer before use. β-Nicotinamide adenine dinucleotide phosphate (NADP), Glucose 6-phosphate (G6P), Glucose 6-phosphate dehydrogenase from yeast (G6PDH), Uridine 5′-diphophoglucuronic acid trisodium salt (UDPGA) and Adenosine 3′-phosphate 5′-phosphosulfate lithium salt hydrate (PAPS) were available commercially from Sigma.
# Compounds were diluted in DMSO to make 10 mM stock solution. 5 μL of this stock solution (10 mM, DMSO) was diluted with 45 μL DMSO and 450 μL 50% Methanol/Water to make intermediate stock solution (100 μM, 45% MeOH, 10% DMSO). 50 μL of intermediate stock solution was diluted with 450 μL 100 mM phosphate buffer to make a final stock solution (10 μM, 4.5% MeOH, 1% DMSO). 10 uL of final stock solution was added to 90 uL liver S9 system (final concentration of 1 μM, 0.45% MeOH, 0.1% DMSO).
# Test compounds were incubated at 37° C. with liver S9 (pooled from multiple donors) at 1 μM in the presence of a NADPH regenerating system, UDPGA, and PAPS at 1 mg/mL S9 protein. Time samples (0 and 60 minutes) were removed and immediately mixed with cold acetonitrile containing internal standard (IS). Samples were analyzed by LC/MS/MS and disappearance of test compounds were assessed based on peak area ratios of analyte /IS (no standard curve). All samples were injected and analyzed using LC-MS/MS. The analyte/internal standard peak area ratios were converted to percentage remaining (% Remaining) with the following equation: % Remaining at 60 min=(Peak area ratio of analyte to IS at 60 min/Peak area ratio of analyte to IS at t=0)×100%. Table 5. Mouse Stability Data According to Example 1D.
# [2] = Mouse Pharmacokinetic Study (Example 1C); format: in vivo; conditions: mouse, plasma, CD-1 mice; for Vd: read-out: Vdss
# Method: Formulations of compounds set forth in Table 4 were administered intravenously or orally via gavage to CD-1 mice. Typically, at 0.167, 0.5, 1, 2, 4, 6, 12, and 24 hours post-dose, blood was collected and processed to plasma by centrifugation and stored at −80° C. until analysis.
# Internal standard was added to each sample prior to protein precipitation with acetonitrile. The precipitates were filtered through a Phree phospholipid removal filter plate and the samples were analyzed by LC/MS/MS. A standard curve was prepared in plasma from typically from 1.0 ng/mL to 3000 ng/mL and processed in the same manner as the samples. Sample analysis was typically performed on a suitable LC/MS/MS system fitted with an analytical UPLC column and compounds eluted from the analytical column with a gradient from 30-95% 0.1% formic acid (v/v) in ACN: 0.1% formic acid (v/v) in water. Mass spectrometric detection of test compound and the internal standard was performed by MRM in positive mode. The pharmacokinetics of each compound were analyzed by Phoenix WinNonlin software (Pharsight, St. Louis, Mo.) via non-compartmental analysis.
# [3] = 4 h, read-out: Cyp1a1 inhibition, Liver, 4 h
# [4] = 4 h, read-out: Cyp1a1 inhibition, Spleen, 4 h
IC50 (AHR) [nM],Mouse S9 Stability: % Remaining After 60 Minutes [1] [%],"bioavailability ([2]; po, 30 mg/kg) [%]","AUC(0-inf) ([2]; iv, 3 mg/kg) [ng·h/mL]","AUC(0-t) ([2]; iv, 3 mg/kg) [ng·h/mL]","clearance ([2]; iv, 3 mg/kg) [mL/min/kg]","half-life ([2]; iv, 3 mg/kg) [h]","Vd ([2]; iv, 3 mg/kg) [L/kg]","AUC(0-inf) ([2]; po, 30 mg/kg) [ng·h/mL]","AUC(0-t) ([2]; po, 30 mg/kg) [ng·h/mL]","Cmax ([2]; po, 30 mg/kg) [ng/mL]","half-life ([2]; po, 30 mg/kg) [h]","Tmax ([2]; po, 30 mg/kg) [h]",Structure (SMILES),inhibition at 30 mg/kg (Cyp1a1; [3]) [%],inhibition at 30 mg/kg (Cyp1a1; [4]) [%],"inhibition at 30 mg/kg (Cyp1a1; 10 h, read-out: Cyp1a1 inhibition, Liver, 10 h) [%]"
< 500,30,17,931,908,53.7,1.31,3.5,1610,1600,799,3.35,,"Fc1cncc(-c2cc(NCCc3c[nH]c4ccccc34)n3ncc(Br)c3n2)c1 [I-39, 3-Bromo-5-(5-fluoro-3-pyridyl)-N-[2-(1H-indol-3-yl)ethyl]pyrazolo[1,5-a]pyrimidin-7-amine]",90,69,
< 500,,,,,,,,,,,,,"CC(C)c1cnn2c(NCCc3c[nH]c4ccccc34)cc(-c3cccnc3)nc12 [I-46, N-[2-(1H-Indol-3-yl)ethyl]-3-isopropyl-5-(3-pyridyl)pyrazolo[1,5-a]pyrimidin-7-amine]",96,94,
< 500,,,,,,,,,,,,,"CC(=O)c1cnn2c(NCCc3c[nH]c4ccccc34)cc(-c3cncc(F)c3)nc12 [I-57, 1-[5-(5-Fluoro-3-pyridyl)-7-[2-(1H-indol-3-yl)ethylamino]pyrazolo[1,5-a]pyrimidin-3-yl]ethanone]",77,66,
> 1500,65,51,2260,2670,14.4,13.8,13.7,,,969,9.8,2,"CC(C)c1cnn2c(N[C@@H]3CCc4[nH]c5ccccc5c4C3)cc(-c3cncc(F)c3)nc12 [I-75a, (3R)—N-[5-(5-fluoro-3-pyridyl)-3-isopropyl-pyrazolo[1,5-a]pyrimidin-7-yl]-2,3,4,9-tetrahydro-1H-carbazol-3-amine]",55,,
< 500,7,6,1140,1140,43.9,0.62,1.4,671,649,713,2.15,0.2,"Fc1cncc(-c2cc(NCCc3c[nH]c4ccccc34)n3nccc3n2)c1 [I-103, 5-(5-Fluoro-3-pyridyl)-N-[2-(1H-indol-3-yl)ethyl]pyrazolo[1,5-a]pyrimidin-7-amine]",94,,0
< 500,0,12,565,555,88.5,2.3,5.8,657,656,604,0.7,0.2,"CN(C)c1cnn2c(NCCc3c[nH]c4ccccc34)cc(-c3cncc(F)c3)nc12 [I-203, 5-(5-fluoro-3-pyridyl)-N7-[2-(1H-indol-3-yl)ethyl]-N3,N3-dimethyl-pyrazolo[1,5-a]pyrimidine-3,7-diamine]",,,
< 500,0,2,455,454,110,0.9,4,67,63,55,3.2,0.2,"CN(C)c1cnn2c(N[C@H]3Cc4ccc(O)cc4C3)cc(-c3cncc(F)c3)nc12 [I-204b, (2S)-2-[[3-(dimethylamino)-5-(5-fluoro-3-pyridyl)pyrazolo[1,5-a]pyrimidin-7-yl]amino]indan-5-ol]",,,
< 500,5,2,682,678,73.3,0.7,2.4,215,132,48.9,,0.2,"Cc1cnn2c(N[C@H]3Cc4ccc(O)cc4C3)cc(-c3cncc(F)c3)nc12 [I-219, (2S)-2-[[5-(5-fluoro-3-pyridyl)-3-methyl-pyrazolo[1,5-a]pyrimidin-7-yl]amino]indan-5-ol]",,,
< 500,1,16,1330,1330,36.9,2.4,1.5,2240,2230,2870,1.7,0.2,"C[C@@H](O)c1cnn2c(NCCc3c[nH]c4ccccc34)cc(-c3cncc(F)c3)nc12 [I-222a, (1R)-1-[5-(5-Fluoro-3-pyridyl)-7-[2-(1H-indol-3-yl)ethylamino]pyrazolo[1,5-a]pyrimidin-3-yl]ethanol]",,,
< 500,0,51,567,564,88.1,1.8,2,2870,2860,2170,3.3,0.2,"C[C@H](O)c1cnn2c(NCCc3c[nH]c4ccccc34)cc(-c3cncc(F)c3)nc12 [I-222b, (1S)-1-[5-(5-Fluoro-3-pyridyl)-7-[2-(1H-indol-3-yl)ethylamino]pyrazolo[1,5-a]pyrimidin-3-yl]ethanol]",,,
